According to patent publication US9999222B2, “Herbicidal combination comprising azines” (BASF SE, priority 2014, dated 2018):
Values joined by “and” are separate entries in the source; they are usually repeats but may differ in a detail not shown here. Equal entries are not always repeated. Where two headings read alike, the source gives them in different places.

How the values were obtained:
Assay in all cases: Greenhouse test, pre-emergence treatment
LOLMU = format: in vivo, Lolium multiflorum; details: pre-emergence, pre-emergence
How it was run: (§1)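 Seeds were sown in loamy sand with approximately 3.0% humus, then sprayed at once with actives suspended or emulsified in water. Pots were watered, hooded until rooting, held at 10-25° C. or 20-35° C. by species for 2 to 4 weeks, and scored 0 (no damage) to 100 (no emergence/complete destruction).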

ALOMY = format: in vivo, Alopecurus myosuroides; details: pre-emergence, pre-emergence
How it was run: as §1

CENCY = format: in vivo
ABUTH = format: in vivo, Abutilon theophrasti; details: Abutilon theophrasti, 480 h, read-out: observed % activity 20 DAT
How it was run: as §1

GALAP = format: in vivo, Galium aparine; details: pre-emergence
How it was run: as §1

EPHHL = format: in vivo, Euphorbia heterophylla; details: pre-emergence
How it was run: as §1

KCHSC = format: in vivo, Kochia scoparia; details: pre-emergence
How it was run: as §1

AVEFA = format: in vivo, Avena fatua; details: Avena fatua, pre-emergence, 480 h, pre-emergence, read-out: observed % activity 20 DAT
How it was run: as §1

COMBE = format: in vivo, Commelina benghalensis; details: pre-emergence
How it was run: as §1

BRADC = format: in vivo, Brachiaria decumbens; details: pre-emergence, pre-emergence
How it was run: as §1

ECHCG = format: in vivo, Echinocloa crus-galli
How it was run: as §1

POLCO = format: in vivo, Polygonum convolvulus; details: pre-emergence
How it was run: as §1

GERPU = format: in vivo, Geranium pusillum; details: pre-emergence
How it was run: as §1

PHACA = format: in vivo, Phalaris canariensis; details: Phalaris canariensis, pre-emergence, 480 h, pre-emergence, read-out: observed % activity 20 DAT
How it was run: as §1

[1] = Lolium multiflorum, 480 h, 2 g ai/ha, read-out: observed % activity 20 DAT
[2] = Lolium multiflorum, 480 h, 8 g ai/ha, read-out: observed % activity 20 DAT
[3] = Alopecurus myosuroides, 480 h, 2 g ai/ha, read-out: observed % activity 20 DAT
[4] = Galium aparine, 480 h, 4 g ai/ha, read-out: observed % activity 20 DAT
[5] = Galium aparine, 480 h, 8 g ai/ha, read-out: observed % activity 20 DAT
[6] = Euphorbia heterophylla, 480 h, 8 g ai/ha, read-out: observed % activity 20 DAT
[7] = Bassia scoparia, 480 h, 4 g ai/ha, read-out: observed % activity 20 DAT
[8] = Bassia scoparia, 480 h, 8 g ai/ha, read-out: observed % activity 20 DAT
[9] = Commelina benghalensis, 480 h, 4 g ai/ha, read-out: observed % activity 20 DAT
[10] = Echinochloa crus-galli, 480 h, 4 g ai/ha, read-out: observed % activity 20 DAT
[11] = Fallopia convolvulus, 480 h, 4 g ai/ha, read-out: observed % activity 20 DAT

Nc1nc(Nc2c(F)c(F)cc(F)c2F)nc(C2(F)CCCC2)n1 [compound 9, 6-(1-fluorocyclopentyl)-N4-(2,3,5,6-tetrafluorophenyl)-1,3,5-triazine-2,4-diamine]
15%: inhibition at 16 g/ha (EPHHL; Euphorbia heterophylla, 480 h, EPHHL, individual, use rate 16 g ai/ha, read-out: observed % activity 20 DAT)
85%: pest or weed control at 8 g/ha (KCHSC; [8]) | pest or weed control at 4 g/ha (ECHCG; [10])
35% and 15%: observed % activity 20 DAT (COMBE; COMBE, individual, use rate 16 g ai/ha)
35%: observed % activity 20 DAT (CENCY; 8 g ai/ha) | observed % activity 20 DAT (COMBE; 16 g ai/ha) | inhibition at 8 g/ha (BRADC; Urochloa decumbens, 480 h, 8 g ai/ha, read-out: observed % activity 20 DAT)
90%: pest or weed control at 8 g/ha (GALAP; [5]) | inhibition at 8 g/ha (KCHSC; Bassia scoparia, 480 h, KCHSC, individual, use rate 8 g ai/ha, read-out: observed % activity 20 DAT) | inhibition at 16 g/ha (KCHSC; Bassia scoparia, 480 h, KCHSC, individual, use rate 16 g ai/ha, read-out: observed % activity 20 DAT) | inhibition at 16 g/ha (KCHSC; Bassia scoparia, 480 h, 16 g ai/ha, read-out: observed % activity 20 DAT) | inhibition at 4 g/ha (ECHCG; [10])
65%: pest or weed control at 8 g/ha (COMBE; Commelina benghalensis, 480 h, 8 g ai/ha, read-out: observed % activity 20 DAT)
0%: inhibition at 2 g/ha (LOLMU; [1]) | pest or weed control at 2 g/ha (LOLMU; [1]) | inhibition at 2 g/ha (AVEFA; 2 g ai/ha) | inhibition at 8 g/ha (AVEFA; 8 g ai/ha) | inhibition at 2 g/ha (PHACA; 2 g ai/ha) | pest or weed control at 2 g/ha (PHACA; 2 g ai/ha)
20%: inhibition at 8 g/ha (CENCY; 480 h, 8 g ai/ha, read-out: observed % activity 20 DAT) | inhibition at 8 g/ha (ABUTH; 8 g ai/ha) | inhibition at 16 g/ha (ABUTH; 16 g ai/ha) | inhibition at 8 g/ha (ABUTH; ABUTH, individual, use rate 8 g ai/ha) | inhibition at 16 g/ha (ABUTH; ABUTH, individual, use rate 16 g ai/ha) | inhibition at 16 g/ha (EPHHL; Euphorbia heterophylla, 480 h, 16 g ai/ha, read-out: observed % activity 20 DAT) | inhibition at 8 g/ha (COMBE; Commelina benghalensis, 480 h, COMBE, individual, use rate 8 g ai/ha, read-out: observed % activity 20 DAT) | inhibition at 16 g/ha (COMBE; Commelina benghalensis, 480 h, 16 g ai/ha, read-out: observed % activity 20 DAT) | inhibition at 2 g/ha (BRADC; Urochloa decumbens, 480 h, 2 g ai/ha, read-out: observed % activity 20 DAT) | pest or weed control at 4 g/ha (POLCO; [11]) | inhibition at 4 g/ha (POLCO; [11]) | pest or weed control at 4 g/ha (GERPU; Geranium pusillum, 480 h, 4 g ai/ha, read-out: observed % activity 20 DAT)
98%: pest or weed control at 8 g/ha (ALOMY; Alopecurus myosuroides, 480 h, 8 g ai/ha, read-out: observed % activity 20 DAT)
60% and 30%: observed % activity 20 DAT (GERPU; 16 g ai/ha)
30% and 60%: observed % activity 20 DAT (GERPU; GERPU, individual, use rate 16 g ai/ha)
75%: inhibition at 8 g/ha (LOLMU; [2]) | pest or weed control at 8 g/ha (LOLMU; [2]) | inhibition at 2 g/ha (ALOMY; [3]) | pest or weed control at 2 g/ha (ALOMY; [3]) | inhibition at 7 g/ha (KCHSC; Bassia scoparia, 480 h, KCHSC, individual, use rate 7 g ai/ha, read-out: observed % activity 20 DAT) | inhibition at 8 g/ha (KCHSC; [8]) | inhibition at 2 g/ha (ECHCG; Echinochloa crus-galli, 480 h, 2 g ai/ha, read-out: observed % activity 20 DAT) | observed % activity 20 DAT (POLCO; 8 g ai/ha)
55%: pest or weed control at 4 g/ha (ABUTH; 4 g ai/ha) | pest or weed control at 4 g/ha (GALAP; [4]) | inhibition at 4 g/ha (GALAP; [4]) | inhibition at 4 g/ha (BRADC; Urochloa decumbens, 480 h, 4 g ai/ha, read-out: observed % activity 20 DAT)
45%: observed % activity 20 DAT (ALOMY; 4 g ai/ha)
10%: inhibition at 16 g/ha (CENCY; 480 h, 16 g ai/ha, read-out: observed % activity 20 DAT) | inhibition at 8 g/ha (EPHHL; [6]) | pest or weed control at 8 g/ha (EPHHL; [6])
25%: inhibition at 8 g/ha (EPHHL; Euphorbia heterophylla, 480 h, EPHHL, individual, use rate 8 g ai/ha, read-out: observed % activity 20 DAT) | pest or weed control at 4 g/ha (EPHHL; Euphorbia heterophylla, 480 h, 4 g ai/ha, read-out: observed % activity 20 DAT) | pest or weed control at 4 g/ha (COMBE; [9]) | inhibition at 4 g/ha (COMBE; [9])
50%: observed % activity 20 DAT (GALAP; GALAP, individual, use rate 8 g ai/ha) | pest or weed control at 4 g/ha (KCHSC; [7]) | inhibition at 8 g/ha (POLCO; Fallopia convolvulus, 480 h, POLCO, individual, use rate 8 g ai/ha, read-out: observed % activity 20 DAT) | inhibition at 8 g/ha (PHACA; 8 g ai/ha)
60%: inhibition at 16 g/ha (GALAP; Galium aparine, 480 h, GALAP, individual, use rate 16 g ai/ha, read-out: observed % activity 20 DAT) | inhibition at 16 g/ha (GALAP; Galium aparine, 480 h, 16 g ai/ha, read-out: observed % activity 20 DAT)
40%: inhibition at 4 g/ha (CENCY; 480 h, 4 g ai/ha, read-out: observed % activity 20 DAT) | pest or weed control at 8 g/ha (ABUTH; 8 g ai/ha) | observed % activity 20 DAT (BRADC; 4 g ai/ha) | inhibition at 8 g/ha (GERPU; Geranium pusillum, 480 h, GERPU, individual, use rate 8 g ai/ha, read-out: observed % activity 20 DAT) | inhibition at 8 g/ha (GERPU; Geranium pusillum, 480 h, 8 g ai/ha, read-out: observed % activity 20 DAT)
80%: observed % activity 20 DAT (LOLMU; 8 g ai/ha) | observed % activity 20 DAT (KCHSC; KCHSC, individual, use rate 16 g ai/ha) | observed % activity 20 DAT (KCHSC; 16 g ai/ha) | pest or weed control at 8 g/ha (POLCO; Fallopia convolvulus, 480 h, 8 g ai/ha, read-out: observed % activity 20 DAT) | inhibition at 16 g/ha (POLCO; Fallopia convolvulus, 480 h, 16 g ai/ha, read-out: observed % activity 20 DAT)
70%: observed % activity 20 DAT (ALOMY; 2 g ai/ha) | inhibition at 8 g/ha (GALAP; Galium aparine, 480 h, GALAP, individual, use rate 8 g ai/ha, read-out: observed % activity 20 DAT) | inhibition at 8 g/ha (GALAP; [5]) | inhibition at 4 g/ha (KCHSC; [7]) | observed % activity 20 DAT (ECHCG; 2 g ai/ha) | inhibition at 16 g/ha (POLCO; Fallopia convolvulus, 480 h, POLCO, individual, use rate 16 g ai/ha, read-out: observed % activity 20 DAT) | pest or weed control at 8 g/ha (PHACA; 8 g ai/ha)
30%: observed % activity 20 DAT (EPHHL; EPHHL, individual, use rate 8 g ai/ha)
